The compounds below were run against T1, MAGL (Homo sapiens, UniProt Q99685) (assay: In vitro competitive activity-based protein profiling, PC3 human cell membrane proteomes). Settings: human PC3 membrane proteome.
T1 sequence (Q99685 1-303): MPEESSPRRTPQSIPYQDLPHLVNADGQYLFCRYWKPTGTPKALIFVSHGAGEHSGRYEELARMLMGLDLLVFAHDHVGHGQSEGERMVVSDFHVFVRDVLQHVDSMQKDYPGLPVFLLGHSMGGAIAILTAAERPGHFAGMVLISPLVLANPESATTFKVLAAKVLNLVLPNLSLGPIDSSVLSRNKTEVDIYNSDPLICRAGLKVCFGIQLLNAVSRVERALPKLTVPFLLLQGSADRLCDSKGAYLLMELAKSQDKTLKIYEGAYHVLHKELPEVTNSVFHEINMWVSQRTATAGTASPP
Assay type: biochemical
Design: endogenous in cells; host or cells: PC3 human cells (membrane proteome)
Procedure: PC3 human cell membrane proteomes (50 μL, 2.0 mg/mL total protein concentration) were preincubated with varying concentrations of inhibitors at 37° C. After 30 min, the ABPP probe JW912-Bodipy (1.0 μL, 50 μM in DMSO) was added and the mixture was incubated for 30 min at room temperature. Reactions were quenched with SDS loading buffer (15 μL-4×) and run on SDS-PAGE. Following gel imaging, serine hydrolase activity was determined by measuring fluorescent intensity of gel bands corresponding to MAGL using ImageJ 1.43u software. Intensities were converted to percent enzyme activity by normalizing to DMSO controls. IC50 values were determined by fitting percent enzyme activities to a non-linear regression, 4-parameter, sigmoidal dose response function in Prism GraphPad.

IC50 [µM] | SMILES
0.0052 | Cc1ccc(NC(=O)C2CC23CCN(C(=O)OC(C(F)(F)F)C(F)(F)F)CC3)cc1 (single isomer, unassigned) [Example 144, 1,1,1,3,3,3-hexafluoropropan-2-yl (R or S)-1-(p-tolylcarbamoyl)-6-azaspiro[2.5]octane-6-carboxylate]
0.27 | Cc1ccc(NC(=O)C2CC23CCN(C(=O)OC(C(F)(F)F)C(F)(F)F)CC3)cc1 (single isomer, unassigned) [Example 145, 1,1,1,3,3,3-hexafluoropropan-2-yl (R or S)-1-(p-tolylcarbamoyl)-6-azaspiro[2.5]octane-6-carboxylate]
0.0018 | O=C(Nc1cccc(F)c1)C1CC12CCN(C(=O)OC(C(F)(F)F)C(F)(F)F)CC2 (single isomer, unassigned) [Example 147, 1,1,1,3,3,3-hexafluoropropan-2-yl (R or S)-1-((3-fluorophenyl)carbamoyl)-6-azaspiro[2.5]octane-6-carboxylate]
0.091 | O=C(Nc1cccc(F)c1)C1CC12CCN(C(=O)OC(C(F)(F)F)C(F)(F)F)CC2 (single isomer, unassigned) [Example 148, 1,1,1,3,3,3-hexafluoropropan-2-yl (R or S)-1-((3-fluorophenyl)carbamoyl)-6-azaspiro[2.5]octane-6-carboxylate]
0.031 | O=C(NCc1ccccc1)[C@@H]1CC12CCN(C(=O)OC(C(F)(F)F)C(F)(F)F)CC2 (single isomer, unassigned) [Example 151]
0.077 | O=C(NCc1cncnc1)C1CC12CCN(C(=O)OC(C(F)(F)F)C(F)(F)F)CC2 (single isomer, unassigned) [Example 153, 1,1,1,3,3,3-hexafluoropropan-2-yl (R or S)-1-((pyrimidin-5-ylmethyl)carbamoyl)-6-azaspiro[2.5]octane-6-carboxylate]
0.86 | O=C(NCc1cncnc1)C1CC12CCN(C(=O)OC(C(F)(F)F)C(F)(F)F)CC2 (single isomer, unassigned) [Example 154, 1,1,1,3,3,3-hexafluoropropan-2-yl (R or S)-1-((pyrimidin-5-ylmethyl)carbamoyl)-6-azaspiro[2.5]octane-6-carboxylate]
0.45 | O=C(NCc1cccnn1)C1CC12CCN(C(=O)OC(C(F)(F)F)C(F)(F)F)CC2 (single isomer, unassigned) [Example 156, 1,1,1,3,3,3-hexafluoropropan-2-yl (R or S)-1-((pyridazin-3-ylmethyl)carbamoyl)-6-azaspiro[2.5]octane-6-carboxylate]
0.23 | O=C(NCc1cccnn1)C1CC12CCN(C(=O)OC(C(F)(F)F)C(F)(F)F)CC2 (single isomer, unassigned) [Example 157]
0.043 | O=C(NC1CC2(COC2)C1)C1CC12CCN(C(=O)OC(C(F)(F)F)C(F)(F)F)CC2 (single isomer, unassigned) [Example 159, 1,1,1,3,3,3-hexafluoropropan-2-yl (R or S)-1-((2-oxaspiro[3.3]heptan-6-yl)carbamoyl)-6-azaspiro[2.5]octane-6-carboxylate]
0.59 | O=C(NC1CC2(COC2)C1)C1CC12CCN(C(=O)OC(C(F)(F)F)C(F)(F)F)CC2 (single isomer, unassigned) [Example 160, 1,1,1,3,3,3-hexafluoropropan-2-yl (R or S)-1-((2-oxaspiro[3.3]heptan-6-yl)carbamoyl)-6-azaspiro[2.5]octane-6-carboxylate]
0.16 | O=C(Nc1ccc(C2CC2)nc1)[C@@H]1CC12CCN(C(=O)OC(C(F)(F)F)C(F)(F)F)CC2 (single isomer, unassigned) [Example 162]
0.001 | O=C(Nc1ccc(C2CC2)nc1)[C@H]1CC12CCN(C(=O)OC(C(F)(F)F)C(F)(F)F)CC2 (single isomer, unassigned) [Example 163]
0.0014 | CC(C)Oc1ccc(NC(=O)C2CC23CCN(C(=O)OC(C(F)(F)F)C(F)(F)F)CC3)cn1 (single isomer, unassigned) [Example 165, 1,1,1,3,3,3-hexafluoropropan-2-yl (R or S)-1-((6-isopropoxypyridin-3-yl)carbamoyl)-6-azaspiro[2.5]octane-6-carboxylate]
0.13 | CC(C)Oc1ccc(NC(=O)C2CC23CCN(C(=O)OC(C(F)(F)F)C(F)(F)F)CC3)cn1 (single isomer, unassigned) [Example 166, 1,1,1,3,3,3-hexafluoropropan-2-yl (R or S)-1-((6-isopropoxypyridin-3-yl)carbamoyl)-6-azaspiro[2.5]octane-6-carboxylate]
0.0025 | CC(=O)Nc1ccc(NC(=O)C2CC23CCN(C(=O)OC(C(F)(F)F)C(F)(F)F)CC3)cn1 (single isomer, unassigned) [Example 171, 1,1,1,3,3,3-hexafluoropropan-2-yl (R or S)-1-((6-acetamidopyridin-3-yl)carbamoyl)-6-azaspiro[2.5]octane-6-carboxylate]
0.13 | CC(=O)Nc1ccc(NC(=O)C2CC23CCN(C(=O)OC(C(F)(F)F)C(F)(F)F)CC3)cn1 (single isomer, unassigned) [Example 172, 1,1,1,3,3,3-hexafluoropropan-2-yl (R or S)-1-((6-acetamidopyridin-3-yl)carbamoyl)-6-azaspiro[2.5]octane-6-carboxylate]
0.22 | NC(=O)c1ccc(NC(=O)[C@@H]2CC23CCN(C(=O)OC(C(F)(F)F)C(F)(F)F)CC3)cn1 (single isomer, unassigned) [Example 174]
0.0014 | NC(=O)c1ccc(NC(=O)[C@H]2CC23CCN(C(=O)OC(C(F)(F)F)C(F)(F)F)CC3)cn1 (single isomer, unassigned) [Example 175]
0.29 | O=C(Nc1ccon1)C1CC12CCN(C(=O)OC(C(F)(F)F)C(F)(F)F)CC2 (single isomer, unassigned) [Example 177, 1,1,1,3,3,3-hexafluoropropan-2-yl (R or S)-1-(isoxazol-3-ylcarbamoyl)-6-azaspiro[2.5]octane-6-carboxylate]
0.0027 | O=C(Nc1ccon1)C1CC12CCN(C(=O)OC(C(F)(F)F)C(F)(F)F)CC2 (single isomer, unassigned) [Example 178, 1,1,1,3,3,3-hexafluoropropan-2-yl (R or S)-1-(isoxazol-3-ylcarbamoyl)-6-azaspiro[2.5]octane-6-carboxylate]
1.4 | O=C(O)COc1ccc(NC(=O)C2CC23CCN(C(=O)OC(C(F)(F)F)C(F)(F)F)CC3)cn1 (single isomer, unassigned) [Example 184, (R or S)-2-((5-(6-(((1,1,1,3,3,3-hexafluoropropan-2-yl)oxy)carbonyl)-6-azaspiro[2.5]octane-1-carboxamido)pyridin-2-yl)oxy)acetic acid]

SMILES | IC50 [µM]
CC1(CNC(=O)C2CC23CCN(C(=O)OC(C(F)(F)F)C(F)(F)F)CC3)CCOCC1 (single isomer, unassigned) [Example 169, 1,1,1,3,3,3-hexafluoropropan-2-yl (R or S)-1-(((4-methyltetrahydro-2H-pyran-4-yl)methyl)carbamoyl)-6-azaspiro[2.5]octane-6-carboxylate] | 0.21
CS(=O)(=O)Nc1ccc(NC(=O)C2CC23CCN(C(=O)OC(C(F)(F)F)C(F)(F)F)CC3)cn1 (single isomer, unassigned) [Example 180, 1,1,1,3,3,3-hexafluoropropan-2-yl (R or S)-1-((6-(methylsulfonamido)pyridin-3-yl)carbamoyl)-6-azaspiro[2.5]octane-6-carboxylate] | 0.28

Reference: US20240018120A1, “MAGL INHIBITORS” (H. LUNDBECK A/S, priority 2020, published 2024)
